From the supplement of paper PMC10307832

Assays:
Assay in all cases: relative viability (nuclei count vs DMSO), 5 days (fraction); higher = more cells survive
[1] = tested on: NCI-H727
How it was run: (§1)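 Lung cancer cell lines were seeded in 1536-well plates and dosed by pin tool the next day, with either a single drug or a fixed anchor-drug dose combined with five library-drug doses (not always all listed) spaced in √10 steps. Five days later, one step fixed the cells and stained their nuclei (final 0.05% Triton X-100, 1% formaldehyde, 1 ug/ml Hoechst), and nuclei were counted on 4× images. Relative viability is the nuclei count in treated wells divided by the count in vehicle wells, and each value is the median of duplicate plates.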

[2] = tested on: LK-2
How it was run: as §1

[3] = tested on: NCI-H1792
How it was run: as §1

[4] = tested on: EMC-BAC-2
How it was run: as §1

[5] = tested on: LXF-289
How it was run: as §1

[6] = tested on: NCI-H1793
How it was run: as §1

[7] = tested on: A-427
How it was run: as §1

[8] = tested on: HARA
How it was run: as §1

[9] = tested on: NCI-H3122
How it was run: as §1

[10] = tested on: NCI-H2170
How it was run: as §1

[11] = tested on: NCI-H596
How it was run: as §1

[12] = tested on: SW 900
How it was run: as §1

[13] = tested on: PC-3 [JPC-3]
How it was run: as §1

[14] = tested on: ABC-1
How it was run: as §1

[15] = tested on: NCI-H1993
How it was run: as §1

[16] = tested on: NCI-H1944
How it was run: as §1

[17] = tested on: HOP-62
How it was run: as §1

## O=C(O)c1ccc(-c2c[nH]c3ncc(-c4ccccc4)cc23)cc1C1CCCC1 + NC(=O)Nc1cc(-c2cccc(F)c2)sc1C(=O)N[C@H]1CCCNC1 [AZD7762] (partner 0.2 µM)
[1]; first compound 0.04 µM
  relative viability: 0.459
[1]; first compound 0.1265 µM
  relative viability: 0.672
[1]; first compound 0.4 µM
  relative viability: 0.679
[1]; first compound 1.265 µM
  relative viability: 0.612
[2]; first compound 0.04 µM
  relative viability: 0.446
[2]; first compound 0.1265 µM
  relative viability: 0.614
[2]; first compound 0.4 µM
  relative viability: 0.373
[2]; first compound 1.265 µM
  relative viability: 0.49
[3]; first compound 0.04 µM
  relative viability: 0.673
[3]; first compound 0.1265 µM
  relative viability: 0.959
[3]; first compound 0.4 µM
  relative viability: 0.94
[3]; first compound 1.265 µM
  relative viability: 0.634
[4]; first compound 0.04 µM
  relative viability: 1.1
[4]; first compound 0.1265 µM
  relative viability: 1.38
[4]; first compound 0.4 µM
  relative viability: 1.23
[4]; first compound 1.265 µM
  relative viability: 0.981
[5]; first compound 0.04 µM
  relative viability: 1.07
[5]; first compound 0.1265 µM
  relative viability: 1.25
[5]; first compound 0.4 µM
  relative viability: 1.02
[5]; first compound 1.265 µM
  relative viability: 0.922
[6]; first compound 0.04 µM
  relative viability: 0.513
[6]; first compound 0.1265 µM
  relative viability: 0.752
[6]; first compound 0.4 µM
  relative viability: 0.544
[6]; first compound 1.265 µM
  relative viability: 0.798
[7]; first compound 0.04 µM
  relative viability: 0.826
[7]; first compound 0.1265 µM
  relative viability: 0.911
[7]; first compound 0.4 µM
  relative viability: 0.893
[7]; first compound 1.265 µM
  relative viability: 0.726
[8]; first compound 0.04 µM
  relative viability: 0.4
[8]; first compound 0.1265 µM
  relative viability: 0.596
[8]; first compound 0.4 µM
  relative viability: 0.385
[8]; first compound 1.265 µM
  relative viability: 0.554
[9]; first compound 0.04 µM
  relative viability: 0.97
[9]; first compound 0.1265 µM
  relative viability: 1.04
[9]; first compound 0.4 µM
  relative viability: 1.05
[9]; first compound 1.265 µM
  relative viability: 0.999
[10]; first compound 0.04 µM
  relative viability: 0.933
[10]; first compound 0.1265 µM
  relative viability: 1.03
[10]; first compound 0.4 µM
  relative viability: 0.895
[10]; first compound 1.265 µM
  relative viability: 0.82
[11]; first compound 0.04 µM
  relative viability: 1.05
[11]; first compound 0.1265 µM
  relative viability: 1.21
[11]; first compound 0.4 µM
  relative viability: 1.08
[11]; first compound 1.265 µM
  relative viability: 1.17
[12]; first compound 0.04 µM
  relative viability: 0.635
[12]; first compound 0.1265 µM
  relative viability: 0.648
[12]; first compound 0.4 µM
  relative viability: 0.755
[12]; first compound 1.265 µM
  relative viability: 0.598
[13]; first compound 0.04 µM
  relative viability: 0.693
[13]; first compound 0.1265 µM
  relative viability: 0.967
[13]; first compound 0.4 µM
  relative viability: 0.806
[13]; first compound 1.265 µM
  relative viability: 0.766
[14]; first compound 0.04 µM
  relative viability: 0.726
[14]; first compound 0.1265 µM
  relative viability: 0.965
[14]; first compound 0.4 µM
  relative viability: 0.89
[14]; first compound 1.265 µM
  relative viability: 0.837
[15]; first compound 0.04 µM
  relative viability: 0.776
[15]; first compound 0.1265 µM
  relative viability: 0.814
[15]; first compound 0.4 µM
  relative viability: 0.832
[15]; first compound 1.265 µM
  relative viability: 0.615
[16]; first compound 0.04 µM
  relative viability: 0.464
[16]; first compound 0.1265 µM
  relative viability: 0.622
[16]; first compound 0.4 µM
  relative viability: 0.637
[16]; first compound 1.265 µM
  relative viability: 0.802
[17]; first compound 0.04 µM
  relative viability: 0.618
[17]; first compound 0.1265 µM
  relative viability: 0.795
[17]; first compound 0.4 µM
  relative viability: 0.637
[17]; first compound 1.265 µM
  relative viability: 0.674
